In brackets after ≈: the same amount, converted by molar mass. Some results are limits rather than exact numbers.

The target in data set [1] is PDE 3 (Homo sapiens, UniProt Q14432). As to the kind of experiment: PDE 3 enzyme inhibition (SPA). The settings on record: PDE 3 from platelet rich plasma; 3H-cAMP; read-out: PDE 3-5 IC 50 (nM): PDE 3. It counts as biochemical, healthy volunteers. The method, then:
PDE 3 and PDE 5 enzymes were purified from platelet rich plasma (PRP) obtained from healthy volunteers.
PDE 3 and PDE 5 enzymes were purified according to Simpson A. W. M. et al. (Biochem. Pharmacol. 1988, 37, 2315-2320) partially modified for the FPLC technique (Fast Protein Liquid Chromatography).
The PRP was diluted 1:2 in saline solution and centrifuged at 2000×g for 15 minutes at room temperature.
The pellet was suspended in 10 ml of lysis solution (155 mM NH4Cl, 10 mM KHCO3 and 0.1 mM Na2EDTA pH 7.4) and incubated for 10 minutes on ice-bath to remove erythrocyte contamination.
After centrifugation, platelets were suspended in 10 ml of 20 mM Bis-Tris, 2 mM EDTA, 5 mM β-mercaptoethanol, 50 mM sodium acetate, 2 mM benzamidine) and homogenised with a Polytron homogeniser on ice-bath.
The homogenate was centrifuged and the supernatant applied to a UNO Q12 column connected to a Biologic Chromatography system (FPLC, BIO RAD).
PDE 3 and PDE 5 enzymes were eluted with a linear 0.05-1M sodium acetate gradient and the elution fractions were collected for PDE enzymes activity assay.
Fractions containing PDE activities were pooled, dialysed overnight against distilled water and concentrated 10 times by an Amicon filtration system (using YM10 membrane filter). Ethylene glycol was added to a final concentration of 30% v/v and the solution stored at −20° C.
(§1) Enzymatic activity was stable for several weeks under these conditions.
Enzymes activity assay were performed using Scintillation Proximity Assay (SPA) Amersham kit consisting of tracer ^3H-cAMP for PDE3 or ^3H-cGMP for PDE5, PDE assay buffer (10×solution: 500 mM TRIS/HCl pH 7.5, 83 mM MgCl2 and 17 mM EGTA) and Yttrium SPA PDE beads (containing 18 mM zinc sulphate).
(§2) The radioactivity of the beads was measured using a scintillation counter (Packard model MINAXI β TRI-CARB 4000 SERIES).

Data set [2] concerns the target T1, PDE 2 (Rattus norvegicus, UniProt Q01062).
T1 construct: Fractions containing PDE 2 enzyme activity were pooled; endogenous in cells; host or cells: PC12 cells (Istituto Zooprofilattico Brescia)
T1 sequence (Q01062 1-928): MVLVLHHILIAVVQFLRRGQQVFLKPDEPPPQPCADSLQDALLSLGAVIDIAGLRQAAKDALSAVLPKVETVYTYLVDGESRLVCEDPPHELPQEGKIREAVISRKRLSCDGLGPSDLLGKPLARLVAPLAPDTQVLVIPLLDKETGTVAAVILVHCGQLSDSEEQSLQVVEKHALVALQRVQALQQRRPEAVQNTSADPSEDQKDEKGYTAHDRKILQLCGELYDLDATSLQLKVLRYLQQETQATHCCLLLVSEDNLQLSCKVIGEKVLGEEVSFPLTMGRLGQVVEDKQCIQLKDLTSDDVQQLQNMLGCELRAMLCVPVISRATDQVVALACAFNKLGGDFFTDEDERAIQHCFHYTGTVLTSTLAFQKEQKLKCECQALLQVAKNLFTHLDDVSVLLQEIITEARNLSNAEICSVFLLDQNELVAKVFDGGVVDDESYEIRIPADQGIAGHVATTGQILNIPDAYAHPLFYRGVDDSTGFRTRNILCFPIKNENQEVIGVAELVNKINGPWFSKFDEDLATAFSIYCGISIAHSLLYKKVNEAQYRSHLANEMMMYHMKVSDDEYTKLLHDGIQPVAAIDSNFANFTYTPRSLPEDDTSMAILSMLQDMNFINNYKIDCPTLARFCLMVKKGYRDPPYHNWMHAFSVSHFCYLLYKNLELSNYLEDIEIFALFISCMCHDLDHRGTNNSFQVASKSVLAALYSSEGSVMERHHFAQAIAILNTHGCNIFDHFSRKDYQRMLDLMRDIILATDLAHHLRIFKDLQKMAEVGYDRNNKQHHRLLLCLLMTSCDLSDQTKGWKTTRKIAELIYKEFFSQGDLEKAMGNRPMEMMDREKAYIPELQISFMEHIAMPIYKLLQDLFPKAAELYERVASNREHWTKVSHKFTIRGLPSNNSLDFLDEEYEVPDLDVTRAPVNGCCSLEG
The data set is described as follows: PDE 2 enzyme inhibition (SPA). It counts as biochemical. The settings on record: PDE 2 from murine PC12 cells; read-out: PDE 2 IC 50. The method, then: PDE 2 was purified from murine PC12 cells according to Whalin et al. (Molecular Pharmacol. 1991, 39, 711-717).
PC12 cells from Istituto Zooprofilattico Brescia (Italy) were maintained in […] flasks at 37° C. and 5% CO2 in DMEM containing 5% FCS, 15% horse serum, 1% penicillin, 1% streptomycin and 1% glutamine.
The cells were expanded paying attention to split them only at reached confluency.
After washing the cells were detached with 0.05% trypsin/0.02%EDTA and collected in a clean test tube.
After centrifugation, the cells were suspended in buffer containing Bis-Tris 20 mM, EDTA 2 mM, 2-mercaptoethanol 5 mM, leupeptin 1 μM, pepstatin A 1 μM, PMSF 100 μM, pH 6.5, and homogenised using a Polytron homogeniser.
After centrifugation, the supernatant fraction was applied to a UNO Q-12 column connected to a Biologic Chromatography system (FPLC, BIO RAD).
PDE 2 enzyme was eluted with a linear 0.05-1M sodium acetate gradient and elution fractions were collected for PDE 2 enzyme activity assay.
Fractions containing PDE 2 enzyme activity were pooled, dialysed overnight against distilled water and concentrated 10 times by an Amicon filtration system (using YM10 membrane filter).
Ethylene glycol was added to a final concentration of 30% v/v and the solution stored at −20° C.
as §1
PDE 2 activity assay was performed using Scintillation Proximity Assay (SPA) Amersham kit consisting of tracer ^3H-cAMP, PDE assay buffer (10×solution: 500 mM TRIS/HCl pH 7.5, 83 mM MgCl2 and 17 mM EGTA) and Yttrium SPA PDE beads (containing 18 mM zinc sulphate).
as §2

A short description of data set [3]: Solubility test by HPLC in PBS pH 7.4. The class given is physicochemical. The settings on record: PBS pH 7.4, HPLC against standard, compounds of formula I; for solubility kinetic: PBS (phosphate buffer saline), aqueous buffer, kinetic from dmso stock. The method, then: HPLC method used to test the solubility.
Solubility test was performed by HPLC analysis (column 4.6×15 mm) water/0.1% TFA —CH3CN/0.06% TFA gradient) against standard.
A […] solution of the substance dissolved in DMSO was prepared.
In order to prepare the sample 190 μl of PBS (Phosphate Buffer Saline, pH 7.4) were added to 10 μl of the above solution; instead (while) in order to prepare the standard 190 μl of DMSO to other 10 μl of solution were added.

PDE 3, sequence (Q14432 674-1093 limits assumed): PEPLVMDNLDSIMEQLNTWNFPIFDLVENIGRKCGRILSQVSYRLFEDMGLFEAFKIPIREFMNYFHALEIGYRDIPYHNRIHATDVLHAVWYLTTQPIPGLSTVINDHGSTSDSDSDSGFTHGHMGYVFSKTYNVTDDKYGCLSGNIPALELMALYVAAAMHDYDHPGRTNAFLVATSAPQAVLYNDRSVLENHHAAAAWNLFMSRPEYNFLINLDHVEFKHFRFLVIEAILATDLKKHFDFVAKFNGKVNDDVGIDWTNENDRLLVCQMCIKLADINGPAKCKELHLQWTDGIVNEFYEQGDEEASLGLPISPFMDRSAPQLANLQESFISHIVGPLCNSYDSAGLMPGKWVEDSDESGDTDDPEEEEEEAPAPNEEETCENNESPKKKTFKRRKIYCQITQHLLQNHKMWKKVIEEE

On to `COc1ccc2c(Cc3c(Cl)cncc3Cl)nnc(-c3cccc(C(=O)O)c3)c2c1` [Compound 2, 3-[4-(3,5-dichloro-pyridin-4-ylmethyl)-7-methoxy-phthalazin-1-yl]-benzoic Acid], for which, in data set [1], the IC50 is more than 10000 nM. For the same compound, the IC50 in data set [2] was more than 10 µM. For the same compound, in data set [3], the kinetic solubility was 216 µg/mL (≈ 491 µM) and the “Sol.” value was 482.14 µM.
For the compound `O=C(O)c1cccc(-c2nnc(Cc3c(Cl)cncc3Cl)c3ccc(OC(F)F)cc23)c1` [Compound 8, 3-[4-(3,5-dichloro-pyridin-4-ylmethyl)-7-difluoromethoxy-phthalazin-1-yl]-benzoic Acid], the IC50 is more than 10000 nM in data set [1] and more than 10 µM in data set [2]. In data set [3], the kinetic solubility amounted to 470 µg/mL (≈ 987 µM). The “Sol.” value in data set [3] worked out at 987.39 µM.
For `COc1ccc2c(Cc3c(Cl)cncc3Cl)nnc(-c3sccc3C(=O)O)c2c1` [Compound 10, 2-[4-(3,5-dichloro-pyridin-4-ylmethyl)-7-methoxy-phthalazin-1-yl]-thiophene-3-carboxylic Acid] the same measures were more than 10000 nM, more than 10 µM, 253 µg/mL (≈ 567 µM) and 567.26 µM.

The values above are taken from US20060166996A1, “Phthalazine derivatives as phosphodiesterase 4 inhibitors” (Zambon Group S.P.A., priority 2002, published 2006).
